Where “and” joins values, the source holds several entries; their conditions need not be identical. Equal values may be shown once.
target: T1, Recombinant human Ku heterodimer (Homo sapiens, UniProt P12956+P13010); assay: Ku-DNA binding assay; conditions: IC50 (concentration that inhibits 50% of the binding activity), titration into Ku-DNA binding reactions (FIG. 1, FIG. 2)
T1 construct: made in house; host or cells: insect cells infected with recombinant baculovirus
From the text: Ku is a DNA end-binding protein that is essential for the repair of DNA double strand breaks via the NHEJ pathway. The mechanism of DNA binding by Ku is via a toroid structure that encircles double-stranded DNA from a terminus.

T1 sequence (P12956 whole entry): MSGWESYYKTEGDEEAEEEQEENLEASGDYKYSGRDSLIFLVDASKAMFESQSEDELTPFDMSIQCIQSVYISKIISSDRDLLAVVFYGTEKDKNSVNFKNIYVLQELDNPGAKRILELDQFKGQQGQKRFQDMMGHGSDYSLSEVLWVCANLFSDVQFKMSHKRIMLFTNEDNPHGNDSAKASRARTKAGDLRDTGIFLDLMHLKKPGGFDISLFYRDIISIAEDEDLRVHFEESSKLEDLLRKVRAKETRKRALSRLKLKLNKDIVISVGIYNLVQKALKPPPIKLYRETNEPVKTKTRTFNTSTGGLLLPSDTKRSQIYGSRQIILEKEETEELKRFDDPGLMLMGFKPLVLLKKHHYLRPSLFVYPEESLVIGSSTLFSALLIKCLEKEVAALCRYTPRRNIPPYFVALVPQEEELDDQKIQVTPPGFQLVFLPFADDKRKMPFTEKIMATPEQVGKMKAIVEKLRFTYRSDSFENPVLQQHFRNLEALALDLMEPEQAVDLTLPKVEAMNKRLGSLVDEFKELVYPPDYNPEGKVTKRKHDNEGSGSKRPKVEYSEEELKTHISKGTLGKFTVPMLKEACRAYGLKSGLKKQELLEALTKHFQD
T1 sequence (P13010 whole entry): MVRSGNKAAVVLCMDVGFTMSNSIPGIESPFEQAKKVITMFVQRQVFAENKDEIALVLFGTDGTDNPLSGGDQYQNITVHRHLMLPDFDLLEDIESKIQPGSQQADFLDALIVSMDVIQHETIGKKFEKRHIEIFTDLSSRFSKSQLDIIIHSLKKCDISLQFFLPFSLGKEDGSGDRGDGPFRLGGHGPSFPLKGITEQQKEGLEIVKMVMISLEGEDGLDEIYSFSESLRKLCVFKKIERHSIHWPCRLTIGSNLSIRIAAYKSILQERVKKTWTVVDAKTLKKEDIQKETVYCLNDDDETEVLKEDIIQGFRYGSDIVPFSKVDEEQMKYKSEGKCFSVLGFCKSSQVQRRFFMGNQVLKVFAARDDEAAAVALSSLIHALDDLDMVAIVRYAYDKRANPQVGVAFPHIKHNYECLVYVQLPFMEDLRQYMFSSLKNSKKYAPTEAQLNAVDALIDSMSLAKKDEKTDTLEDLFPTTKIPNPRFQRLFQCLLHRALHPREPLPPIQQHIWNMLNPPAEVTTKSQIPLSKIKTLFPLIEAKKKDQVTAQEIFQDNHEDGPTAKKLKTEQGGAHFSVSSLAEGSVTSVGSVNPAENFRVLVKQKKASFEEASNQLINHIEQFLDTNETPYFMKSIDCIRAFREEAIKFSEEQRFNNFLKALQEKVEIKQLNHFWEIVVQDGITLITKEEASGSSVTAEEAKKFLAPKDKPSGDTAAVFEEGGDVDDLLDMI

SMILES	IC50 [µM]
CC1=NN(c2cccc(C(=O)O)c2)C(=O)/C1=C\c1ccc(-c2ccc(Cl)c(C(=O)O)c2)o1 [X80, (Z)-5-(5-((1-(3-Carboxyphenyl)-3-methyl-5-oxo-1H-pyrazol-4(5H)-ylidene)methyl)furan-2-yl)-2-chlorobenzoic acid]	~75
CCCCOC(=O)c1cc(-c2ccc(/C=C3\C(=O)N(c4ccc(Cl)c(C(=O)O)c4)N=C3C)o2)ccc1Cl [compound 0530, reference compound]	~5

same assay, conditions: Table 1, purchased second generation inhibitors; several values in a cell = separate determinations; read-out: IC50

SMILES	IC50
CC1=NN(c2ccc(Cl)c(C(=O)O)c2)C(=O)/C1=C\c1ccc(-c2ccc([N+](=O)[O-])cc2Br)o1 [compound 0277, reference compound]	21 µM and 19 µM
CC1=NN(c2cccc(C(=O)O)c2)C(=O)/C1=C\c1ccc(-c2cc([N+](=O)[O-])ccc2C)o1 [compound 0302, reference compound]	13 µM and 7 µM and 9 µM
CCCCOC(=O)c1cc(-c2ccc(/C=C3\C(=O)N(c4ccc(Cl)c(C(=O)O)c4)N=C3C)o2)ccc1Cl [compound 0530, reference compound]	5.6 µM
CC1=NN(c2cccc(C(=O)O)c2)C(=O)/C1=C\c1ccc(-c2cccc(C(=O)O)c2)o1 [compound 0803, reference compound]	65 µM
COc1cc([N+](=O)[O-])ccc1-c1ccc(/C=C2\C(=O)N(c3cccc(C(=O)O)c3)N=C2C)o1 [compound 0814, reference compound]	190 µM
CC1=NN(c2cccc(C(=O)O)c2)C(=O)/C1=C\c1ccc(-c2ccccc2C(=O)O)o1 [compound 0949, reference compound]	91 µM

same assay, conditions: Table 2, synthesized derivatives; several values in a cell = separate determinations; read-out: IC50

SMILES	IC50
CC1=NN(c2cccc(C(=O)O)c2)C(=O)C1Cc1ccc(-c2ccc(Cl)c(C(=O)NCc3ccc(F)cc3)c2)o1 (centres unmarked) [NG-01-65, 3-(4-((5-(4-Chloro-3-((4-fluorobenzyl)carbamoyl)phenyl)furan-2-yl)methyl)-3-methyl-5-oxo-4,5-dihydro-1H-pyrazol-1-yl)benzoic acid]	8 µM
CC1=NN(c2cccc(C(=O)O)c2)C(=O)/C1=C\c1ccc(-c2ccc(Cl)c(C(=O)NCC3CC3)c2)o1 [NG-01-70, (Z)-3-(4-((5-(4-Chloro-3-((cyclopropylmethyl)carbamoyl)phenyl)furan-2-yl)methylene)-3-methyl-5-oxo-4,5-dihydro-1H-pyrazol-1-yl)benzoic acid]	25 µM and > 50 µM
CC1=NN(c2cccc(C(=O)O)c2)C(=O)C1Cc1ccc(-c2ccc(Cl)c(C(=O)NCC3CC3)c2)o1 (centres unmarked) [NG-01-72, 3-(4-((5-(4-Chloro-3-((cyclopropylmethyl)carbamoyl)phenyl)furan-2-yl)methyl)-3-methyl-5-oxo-4,5-dihydro-1H-pyrazol-1-yl)benzoic acid]	10 µM
CCOC(=O)c1cccc(N2N=C(C)C(Cc3ccc(-c4ccc(Cl)c(C(=O)Nc5cccc(OC)c5)c4)o3)C2=O)c1 (centres unmarked) [NG-02-131, Ethyl 3-(4-((5-(4-chloro-3-((3-methoxyphenyl)carbamoyl)phenyl)furan-2-yl)methyl)-3-methyl-5-oxo-4,5-dihydro-1H-pyrazol-1-yl)benzoate]	3 µM
COc1cccc(NC(=O)c2ccc(CC3C(=O)N(c4cccc(C(=O)O)c4)N=C3C)o2)c1 (centres unmarked) [NG-02-165, 3-(4-((5-((3-Methoxyphenyl)carbamoyl)furan-2-yl)methyl)-3-methyl-5-oxo-4,5-dihydro-1H-pyrazol-1-yl)benzoic acid]	11 µM
COc1cccc(NC(=O)c2cc(-c3ccc(/C=C4\C(=O)N(c5cccc(-c6nnn[nH]6)c5)N=C4C)o3)ccc2Cl)c1 [NG-02-201/ NG-03-244]	4 µM
COc1cccc(NC(=O)c2cc(-c3ccc(CC4C(=O)N(c5ccc(C(=O)O)cc5)N=C4C)o3)ccc2Cl)c1 (centres unmarked) [NG-03-188, 4-(4-((5-(4-Chloro-3-((3-methoxyphenyl)carbamoyl)phenyl)furan-2-yl)methyl)-3-methyl-5-oxo-4,5-dihydro-1H-pyrazol-1-yl)benzoic acid]	12.5 µM and 6 µM
COc1cccc(NC(=O)c2cc(-c3ccc(/C=C4\C(=O)N(c5ccc(S(N)(=O)=O)cc5)N=C4C)o3)ccc2Cl)c1 [NG-03-196, (Z)-2-chloro-N-(3-methoxyphenyl)-5-(5-((3-methyl-5-oxo-1-(4-sulfamoylphenyl)-1,5-dihydro-4H-pyrazol-4-ylidene)methyl)furan-2-yl)benzamide]	20 µM
COc1cccc(NC(=O)c2cc(-c3ccc(/C=C4\C(=O)N(c5cccc(-c6nnn[nH]6)c5)N=C4C)o3)ccc2Cl)c1 [NG-03-201, (Z)-5-(5-((1-(3-(1H-Tetrazol-5-yl)phenyl)-3-methyl-5-oxo-1,5-dihydro-4H-pyrazol-4-ylidene)methyl)furan-2-yl)-2-chloro-N-(3-methoxyphenyl)benzamide]	4.5 µM and 6.5 µM
COc1ccc(NC(=O)c2cc(-c3ccc(CC4C(=O)N(c5cccc(C(=O)O)c5)N=C4C)o3)ccc2Cl)cc1OC (centres unmarked) [NG-03-206, 3-(4-((5-(4-Chloro-3-((3,4-dimethoxyphenyl)carbamoyl)phenyl)furan-2-yl)methyl)-3-methyl-5-oxo-4,5-dihydro-1H-pyrazol-1-yl)benzoic acid]	7.5 µM
CC1=NN(c2ccc(S(N)(=O)=O)cc2)C(=O)/C1=C\c1ccc(-c2ccc(Cl)c(C(=O)NCC3CC3)c2)o1 [NG-03-212, (Z)-2-chloro-N-(cyclopropylmethyl)-5-(5-((3-methyl-5-oxo-1-(4-sulfamoylphenyl)-1,5-dihydro-4H-pyrazol-4-ylidene)methyl)furan-2-yl)benzamide]	30 µM
CC1=NN(c2cccc(C(=O)O)c2)C(=O)C1Cc1ccc(-c2ccc(Cl)c(C(=O)NCC3CC3)c2)s1 (centres unmarked) [NG-03-231, 3-(4-((5-(4-Chloro-3-((cyclopropylmethyl)carbamoyl)phenyl)thiophen-2-yl)methyl)-3-methyl-5-oxo-4,5-dihydro-1H-pyrazol-1-yl)benzoic acid]	12 µM
CC1=NN(c2ccc(C(=O)O)cc2)C(=O)/C1=C\c1ccc(-c2ccc(Cl)c(C(=O)O)c2)s1 [NG-03-234, (Z)-5-(5-((1-(4-Carboxyphenyl)-3-methyl-5-oxo-1,5-dihydro-4H-pyrazol-4-ylidene)methyl)thiophen-2-yl)-2-chlorobenzoic acid]	6 µM
CC1=NN(c2cccc(C(=O)O)c2)C(=O)/C1=C\c1ccc(-c2ccc(Cl)c(C(=O)NCc3ccccc3)c2)o1 [NG-03-270, (Z)-3-(4-((5-(3-(Benzylcarbamoyl)-4-chlorophenyl)furan-2-yl)methylene)-3-methyl-5-oxo-4,5-dihydro-1H-pyrazol-1-yl)benzoic acid]	10 µM

Results, then the compound that gave them:

IC50	SMILES
3 µM	CCOC(=O)c1cccc(N2N=C(C)/C(=C/c3ccc(-c4ccc(Cl)c(C(=O)Nc5cccc(OC)c5)c4)o3)C2=O)c1 [NG-02-130, (Z)-Ethyl 3-(4-((5-(4-chloro-3-((3-methoxyphenyl)carbamoyl)phenyl)furan-2-yl)methylene)-3-methyl-5-oxo-4,5-dihydro-1H-pyrazol-1-yl)benzoate]
8 µM and 11 µM	COc1cccc(NC(=O)c2ccc(/C=C3\C(=O)N(c4cccc(C(=O)O)c4)N=C3C)o2)c1 [NG-02-162/ NG-02-162C, (Z)-3-(4-((5-((3-methoxyphenyl)carbamoyl)furan-2-yl)methylene)-3-methyl-5-oxo-4,5-dihydro-1H-pyrazol-1-yl)benzoic acid]
14 µM	COc1ccc(NC(=O)c2cc(-c3ccc(/C=C4\C(=O)N(c5cccc(C(=O)O)c5)N=C4C)o3)ccc2Cl)cc1OC [NG-03-189, (Z)-3-(4-((5-(4-chloro-3-((3,4-dimethoxyphenyl)carbamoyl)phenyl)furan-2-yl)methylene)-3-methyl-5-oxo-4,5-dihydro-1H-pyrazol-1-yl)benzoic acid]
18 µM	COc1cccc(NC(=O)c2cc(-c3ccc(/C=C4\C(=O)N(c5cccc(C(=O)O)c5)N=C4C)s3)ccc2Cl)c1 [NG-03-203, (Z)-3-(4-((5-(4-chloro-3-((3-methoxyphenyl)carbamoyl)phenyl)thiophen-2-yl)methylene)-3-methyl-5-oxo-4,5-dihydro-1H-pyrazol-1-yl)benzoic acid]
7 µM	COc1cccc(NC(=O)c2cc(-c3ccc(CC4C(=O)N(c5cccc(C(=O)O)c5)N=C4C)s3)ccc2Cl)c1 (centres unmarked) [NG-03-207, 3-(4-((5-(4-chloro-3-((3-Methoxyphenyl)carbamoyl)phenyl)thiophen-2-yl)methyl)-3-methyl-5-oxo-4,5-dihydro-1H-pyrazol-1-yl)benzoic acid]
15 µM	CC1=NN(c2cccc(C(=O)O)c2)C(=O)/C1=C\c1ccc(-c2ccc(Cl)c(C(=O)O)c2)s1 [NG-03-224, (Z)-5-(5-((1-(3-Carboxyphenyl)-3-methyl-5-oxo-1,5-dihydro-4H-pyrazol-4-ylidene)methyl)thiophen-2-yl)-2-chlorobenzoic acid]
7 µM	CC1=NN(c2cccc(C(=O)O)c2)C(=O)/C1=C\c1ccc(-c2ccc(Cl)c(C(=O)NCC3CC3)c2)s1 [NG-03-226, (Z)-3-(4-((5-(4-Chloro-3-((cyclopropylmethyl)carbamoyl)phenyl)thiophen-2-yl)methylene)-3-methyl-5-oxo-4,5-dihydro-1H-pyrazol-1-yl)benzoic acid]
8.75 µM	CCOC(=O)c1ccc(N2N=C(C)/C(=C/c3ccc(-c4ccc(Cl)c(C(=O)Nc5cccc(OC)c5)c4)s3)C2=O)cc1 [NG-03-235, Ethyl (Z)-4-(4-((5-(4-chloro-3-((3-methoxyphenyl)carbamoyl)phenyl)thiophen-2-yl)methylene)-3-methyl-5-oxo-4,5-dihydro-1H-pyrazol-1-yl)benzoate]
10 µM	COc1cccc(NC(=O)c2cc(-c3ccc(/C=C4\C(=O)N(c5ccc(C(=O)O)cc5)N=C4C)s3)ccc2Cl)c1 [NG-03-236, (Z)-4-(4-((5-(4-Chloro-3-((3-methoxyphenyl)carbamoyl)phenyl)thiophen-2-yl)methylene)-3-methyl-5-oxo-4,5-dihydro-1H-pyrazol-1-yl)benzoic acid]
14 µM	COc1cccc(NC(=O)c2cc(-c3ccc(CC4C(=O)N(c5ccc(C(=O)O)cc5)N=C4C)s3)ccc2Cl)c1 (centres unmarked) [NG-03-238, 4-(4-((5-(4-Chloro-3-((3-methoxyphenyl)carbamoyl)phenyl)thiophen-2-yl)methyl)-3-methyl-5-oxo-4,5-dihydro-1H-pyrazol-1-yl)benzoic acid]

— patent US11098033B2, “Ku inhibitors and their use” (INDIANA UNIVERSITY RESEARCH AND TECHNOLOGY CORPORATION, priority 2016, dated 2021)
